Results reported in patent publication US20030162759A1, “Aldosterone blocker therapy to prevent or treat inflammation-related disorders” (priority 2000, published 2003).
Values joined by “and” are separate entries in the source; they are usually repeats but may differ in a detail not shown here. Identical values can stand only once. “Also recorded” adds a separate entry of the source.

Key:
[1] = system: aldosterone + salt treated rats; test: Assay C further aldosterone infusion study: radiotelemetrized systolic blood pressure; assay type: in vivo, rat
Source text: Assay C: Further in vivo Aldosterone Infusion Study The procedure of Assay B was expanded upon in a further study. […] Myocardial tissue from animals in each treatment group was examined after 7, 14, or 30 days of treatment. […] Lesions were preceded by the expression and progressive upregulation of proinflammatory molecules. […] Male Sprague-Dawley rats, weighing 230 to 250 g, (Harlan Sprague-Dawley Industries, Indianapolis, Ind.) were housed in a room 12-hours light/12-hours dark daily cycle at an ambient temperature of 22±1° C. (n=96). Animals were allowed one week to adjust after arrival and had free access to TEKLAD 22/5 rodent diet (Harlan TEKLAD, Madison, Wis.) and tap water until the initiation of the experiment. Prior to surgery the animals were individually weighed and placed in one of the following groups: […] Potassium chloride supplementation was added to the saline solution in order to prevent the potential hypokalemia associated with aldosterone excess. […] Louis, Mo.) was inserted subcutaneously at the nape of the neck. Aldosterone was administered at a dose of […]. […] Animals were sacrificed from each group (n=8-13) after 7, 14, or 30 days of treatment. Animals to be sacrificed after 7 or 14 days of treatment were uninephrectomized and implanted with an Alzet minipump. Animals treated for 30 days were uninephrectomized, fitted for Alzet minipumps, and implanted with radio telemetry units (model#TA11PA-C40, Data Sciences Inc., St. Paul, Minn.) according to the following procedure. […] The surgery site was clipped, scrubbed with nolvasan, and sprayed with betadine. A rostral-caudal incision was made through the skin from the base of the rib cage to the pubic region using a #11 scalpel blade. A second incision was made through the muscles of the abdominal wall to expose the peritoneal cavity. […] Organs were carefully displaced with tissue retractors in order to expose the abdominal aorta. A 1.5 cm segment just rostral to the bifurcation of the abdominal aorta into the iliac arteries was cleared of excessive connective tissue and 4-0 silk was used to make an anchor adjacent to the aorta. A microvascular clip was then placed at both ends of the cleaned region to stop excessive blood flow. Using a bent, 21 gauge needle, the abdominal aorta was penetrated. The cannula of the radio telemetry unit was inserted and stabilized in the aorta using the 4-0 silk anchor. Organs were repositioned and the telemetry unit was placed over the organs. Using a non-interrupted suture pattern with 4-0 silk, the abdominal wall was closed, and the skin was subsequently closed using a 4-0 silk in an interrupted suture pattern. […] Post-operative care included monitoring the animals on a heating pad during recovery from anesthesia until sternal recumbency was reestablished. Radiotelemetrized arterial blood pressure was calculated with the […] Version 1.1-Gold software (Data Sciences International, St. Paul, Minn.). Data points were collected over a 24 hour period with the collection rate set for a 10 second reading every 5 min for each animal. The 24 hour period used was from 6:00 a.m. to 6:00 a.m.

[2] = system: Intercellular Adhesion Molecule-1 (ICAM-1); test: Assay C: ICAM-1 relative mRNA expression in heart (TaqMan); assay type: in vivo, rat; conditions: for ICAM, Mean / ICAM: mRNA; for ICAM, Mean: group mean; for ICAM: individual rats; for ICAM-1 mRNA expression in myocardium: time course 7, 14, 30 days, eplerenone 100 mg/kg/day
Method: The procedure of Assay B was expanded upon in a further study. […] Myocardial tissue from animals in each treatment group was examined after 7, 14, or 30 days of treatment.
Potassium chloride supplementation was added to the saline solution in order to prevent the potential hypokalemia associated with aldosterone excess.
At the time of the surgery, an Alzet 2002 osmotic minipump (Alza Corp., Palo Alto, Calif.) containing either vehicle (9% ethanol/87% propylene glycol/4% dH2O) or 1.0 mg/mL d-aldosterone (Sigma Chemical, St. Louis, Mo.) was inserted subcutaneously at the nape of the neck. Aldosterone was administered at a dose of 0.75 g/hour. […] Animals were sacrificed from each group (n=8-13) after 7, 14, or 30 days of treatment.
The fluorogenic 5′-nuclease assay (TaqMan PCR) using Applied Biosystems' 7700 Sequence Detection System (Applied Biosystems, Foster City, Calif.) allowed for real time detection/quantitation of a specific gene by monitoring the increase in fluorescence of a gene-specific, dye-labeled oligonucleotide probe. Probes for target and reference genes were labeled at the 5′-end with a 6-carboxyfluorescein (6FAM) reporter dye and at the 3′-end with a 6-carboxy-N,N,N′,N′-tetramethylrhodamine (TAMRA) quencher dye. When the probe was annealed to the target gene, fluorescence of 6FAM was prevented by the close proximity of TAMRA. The exonuclease activity of Taq polymerase released the dyes from the oligonucleotide probe by displacing the probe from the target sequence resulting in fluorescence excitation in direct proportion to the amount of target message present. Data analysis was performed using the Sequence Detection System software from Applied Biosystems.
All primers and probes were designed using Primer Express software supplied with the 7700 Sequence Detection System and synthesized by Applied Biosystems. Standard curves using 5-fold dilutions of total RNA (from 200 ng to 320 pg) were performed to determine the efficiency of each primer/probe set in the TaqMan reaction prior to the analysis of the experimental samples. Primer/probe sets were designed from known sequences of rat genes to be analyzed. All target gene values were normalized to a reference gene, constitutively expressed cyclophilin. Primer/probe set sequences can be found in Table 8.
RNA was extracted from frozen (−80° C.) rat heart tissue using the Totally RNA Isolation Kit (Ambion, Inc., Austin, Tex.). Tissue was crushed using a stainless steel mortar and pestle, which had been chilled to −80° C. and transferred to a dounce homogenizer (Kontes, Vineland, N.J.) containing 3-10 mL cold denaturation buffer. Tissue was homogenized and transferred to a sterile, 15 mL polypropylene centrifuge tube. An equal volume of phenol:chloroform:isoamyl alcohol (25:24:1) was added, samples were shaken vigorously for 1 min, and incubated on ice for at least 15 min. Samples were centrifuged for 30 min at 10,000 g. The aqueous phase was removed, 1/10 volume of a sodium acetate solution (3.0 M NaOAc pH 4.5) was added, samples were shaken or inverted for 10 seconds, and acid-phenol (premixed with isoamyl alcohol):chloroform (5:1, Ambion, Inc.) was added at an volume equivalent to the starting sample volume. Samples were shaken vigorously for 1 min, followed by a 15-min incubation on ice, and centrifuged for 30 min at 10,000 g. The aqueous phase removed and placed in a clean polypropylene tube. An equal volume of isopropanol (Sigma, St. Louis, Mo.) was added and the samples were mixed and incubated overnight at −20° C. The samples were centrifuged for 30 min at 10,000 g, the supernatant was removed and the RNA pellet was resuspended in DNAse/RNAse-free water. Samples were frozen at −80° C. for at least 2 hours, thawed on wet ice, and diluted for quantitation.

C[C@]12CCC(=O)C=C1CC[C@@H]1[C@@H]2[C@@H](O)C[C@]2(C=O)[C@@H](C(=O)CO)CC[C@@H]12 [aldosterone]
Systolic Blood Pressure ([1]; Day 3, mean ± SEM of values every 5 min over 24-hour period): 132 ± 6 mmHg
Systolic Blood Pressure ([1]; Day 5, mean ± SEM of values every 5 min over 24-hour period): 137 ± 4 mmHg
Systolic Blood Pressure ([1]; Day 6, mean ± SEM of values every 5 min over 24-hour period): 148 ± 5 mmHg
Systolic Blood Pressure ([1]; Day 7, mean ± SEM of values every 5 min over 24-hour period): 155 ± 5 mmHg
Systolic Blood Pressure ([1]; Day 8, mean ± SEM of values every 5 min over 24-hour period): 156 ± 4 mmHg
Systolic Blood Pressure ([1]; Day 9, mean ± SEM of values every 5 min over 24-hour period): 164 ± 5 mmHg
Systolic Blood Pressure ([1]; Day 11, mean ± SEM of values every 5 min over 24-hour period): 171 ± 6 mmHg
Systolic Blood Pressure ([1]; Day 12, mean ± SEM of values every 5 min over 24-hour period): 178 ± 6 mmHg
Systolic Blood Pressure ([1]; Day 13, mean ± SEM of values every 5 min over 24-hour period): 182 ± 6 mmHg
Systolic Blood Pressure ([1]; Day 15, mean ± SEM of values every 5 min over 24-hour period): 181 ± 5 mmHg
Systolic Blood Pressure ([1]; Day 16, mean ± SEM of values every 5 min over 24-hour period): 187 ± 6 mmHg
Systolic Blood Pressure ([1]; Day 17, mean ± SEM of values every 5 min over 24-hour period): 195 ± 7 mmHg
Systolic Blood Pressure ([1]; Day 18, mean ± SEM of values every 5 min over 24-hour period): 196 ± 6 mmHg
Systolic Blood Pressure ([1]; Day 19, mean ± SEM of values every 5 min over 24-hour period): 200 ± 6 mmHg
Systolic Blood Pressure ([1]; Day 20, mean ± SEM of values every 5 min over 24-hour period): 203 ± 5 mmHg
Systolic Blood Pressure ([1]; Day 21, mean ± SEM of values every 5 min over 24-hour period): 208 ± 4 mmHg
Systolic Blood Pressure ([1]; Day 22, mean ± SEM of values every 5 min over 24-hour period): 209 ± 4 mmHg
Systolic Blood Pressure ([1]; Day 23, mean ± SEM of values every 5 min over 24-hour period): 208 ± 4 mmHg
Systolic Blood Pressure ([1]; Day 24, mean ± SEM of values every 5 min over 24-hour period): 210 ± 3 mmHg
Systolic Blood Pressure ([1]; Day 25, mean ± SEM of values every 5 min over 24-hour period): 210 ± 4 mmHg
Systolic Blood Pressure ([1]; Day 26, mean ± SEM of values every 5 min over 24-hour period): 210 ± 3 mmHg
Systolic Blood Pressure ([1]; uninephrectomized Sprague-Dawley rats, 1% NaCl-0.3% KCl, aldosterone infusion, eplerenone 100 mg/kg/day, up to 30 days, listed as Aldosterone+salt): progressive increase in blood pressure with time
Systolic Blood Pressure ([1]; uninephrectomized Sprague-Dawley rats, 1% NaCl-0.3% KCl, aldosterone infusion, eplerenone 100 mg/kg/day, up to 30 days, listed as Aldosterone/salt): induced severe hypertension
ICAM, Mean ([2]; 14 days of treatment): 1.47 AU
ICAM, Mean ([2]; 30 days of treatment): 1.81 AU
ICAM ([2]; 7 days of treatment, listed as Aldosterone + salt): 1.39 AU and 0.80 AU and 1.68 AU
ICAM ([2]; 14 days of treatment, listed as Aldosterone + salt): 1.16 AU
ICAM ([2]; 30 days of treatment, listed as Aldosterone + salt): 1.50 AU
ICAM-1 mRNA expression in myocardium [2]: upregulated at day 14 and 30

COC(=O)[C@@H]1CC2=CC(=O)CC[C@]2(C)[C@@]23O[C@@H]2C[C@@]2(C)[C@@H](CC[C@@]24CCC(=O)O4)[C@H]13 [eplerenone, Pregn-4-ene-7,21-dicarboxylic acid, 9,11-epoxy-17-hydroxy-3-oxo-, γ-lactone, methyl ester, (7α, 11α, 17β) -]
Systolic Blood Pressure ([1]; uninephrectomized Sprague-Dawley rats, 1% NaCl-0.3% KCl, aldosterone infusion, eplerenone 100 mg/kg/day, up to 30 days): significantly reduced
Systolic Blood Pressure ([1]; uninephrectomized Sprague-Dawley rats, 1% NaCl-0.3% KCl, aldosterone infusion, eplerenone 100 mg/kg/day, up to 30 days, listed as eplerenone+aldosterone+salt): significantly reduced at days 8-30
ICAM, Mean ([2]; 7 days of treatment): 0.83 AU
ICAM, Mean ([2]; 14 days of treatment): 1.19 AU
ICAM, Mean ([2]; 30 days of treatment): 1.22 AU
ICAM ([2]; 7 days of treatment, listed as Eplerenone + aldosterone + salt): 0.91 AU and 0.89 AU (2×) and 0.40 AU and 0.58 AU and 1.00 AU
ICAM ([2]; 14 days of treatment, listed as Eplerenone + aldosterone + salt): 1.20 AU and 0.95 AU and 1.26 AU and 1.56 AU and 0.98 AU (2×) and 0.79 AU and 0.83 AU
ICAM ([2]; 30 days of treatment, listed as Eplerenone + aldosterone + salt): 1.21 AU and 1.26 AU and 0.60 AU and 0.99 AU
ICAM-1 mRNA expression in myocardium [2]: significantly reduced; also recorded: inhibition of early time-course expression of myocardial ICAM-1 and VCAM-1
